Data reported in patent US20200317642A1, “AMINE-SUBSTITUTED HETEROCYCLIC COMPOUNDS AS EHMT2 INHIBITORS AND DERIVATIVES THEREOF” (Epizyme, Inc., priority 2017, published 2020).

Experiments:
[1] = target: T1, human EHMT2 913-1193 (Homo sapiens, UniProt Q96KQ7); experiment: EHMT2 enzyme assay on histone peptide substrate; type: biochemical; conditions: Table 3A; histone H3 1-15 peptide, balanced conditions; read-out: EHMT2 (IC50 μM)
T1 construct: recombinant purified human EHMT2 913-1193, Viva; purchased Viva
T1 sequence (Q96KQ7 913-1193): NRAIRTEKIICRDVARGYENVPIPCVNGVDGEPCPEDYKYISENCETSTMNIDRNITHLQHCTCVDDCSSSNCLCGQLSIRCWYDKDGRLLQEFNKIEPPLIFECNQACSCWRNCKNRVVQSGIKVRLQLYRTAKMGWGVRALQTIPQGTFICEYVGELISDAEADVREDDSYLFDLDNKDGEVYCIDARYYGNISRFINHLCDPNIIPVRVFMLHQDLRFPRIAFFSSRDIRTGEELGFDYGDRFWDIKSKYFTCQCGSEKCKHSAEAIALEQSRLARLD
Excerpt: Recombinant purified human EHMT2 913-1193 ([…]) synthesized by Viva was used for all experiments. Biotinylated histone peptides were synthesized by Biopeptide and HPLC-purified to >95% purity. Streptavidin Flashplates and seals were purchased from PerkinElmer and 384 Well V-bottom Polypropylene Plates were from Greiner. ^3H-labeled S-adenosylmethionine (^3H-SAM) was obtained from American Radiolabeled Chemicals with a specific activity of 80 Ci/mmol. Unlabeled SAM and S-adenosylhomocysteine (SAH) were obtained from American Radiolabeled Chemicals and Sigma-Aldrich respectively. Flashplates were washed in a Biotek ELx-405 with 0.1% Tween. 384-well Flashplates and 96-well filter binding plates were read on a TopCount microplate reader (PerkinElmer). Compound serial dilutions were performed on a Freedom EVO (Tecan) and spotted into assay plates using a Thermo Scientific Matrix PlateMate (Thermo Scientific). Reagent cocktails were added by Multidrop Combi (Thermo Scientific).
10-point curves of test compounds were made on a Freedom EVO (Tecan) using serial 3-fold dilutions in DMSO, beginning at 2.5 mM (final top concentration of compound was […] and the DMSO was 2%). A 1 μL aliquot of the inhibitor dilution series was spotted in a polypropylene 384-well V-bottom plate (Greiner) using a Thermo Scientific Matrix PlateMate (Thermo Scientific). The 100% inhibition control consisted of 1 mM final concentration of the product inhibitor S-adenosylhomocysteine (SAH, Sigma-Aldrich). Compounds were incubated for 30 minutes with 40 μL per well of 0.031 nM EHMT2 (recombinant purified human EHMT2 913-1193, Viva) in 1× assay buffer (20 mM Bicine [pH 7.5], 0.002% Tween 20, 0.005% Bovine Skin Gelatin and 1 mM TCEP). 10 μL per well of substrate mix comprising assay buffer, ^3H-SAM (^3H-labeled S-adenosylmethionine, American Radiolabeled Chemicals, specific activity of 80 Ci/mmol), unlabeled SAM (American Radiolabeled Chemicals), and peptide representing histone H3 residues 1-15 containing C-terminal biotin (appended to a C-terminal amide-capped lysine, synthesized by Biopeptide and HPLC-purified to greater than 95% purity) were added to initiate the reaction (both substrates were present in the final reaction mixture at their respective Km values, an assay format referred to as “balanced conditions”). Reactions were incubated for 60 minutes at room temperature and quenched with 10 μL per well of 400 μM unlabeled SAM, then transferred to a 384-well streptavidin Flashplate (PerkinElmer) and washed in a Biotek ELx-405 well washer with 0.1% Tween after 60 minutes. 384-well Flashplates were read on a TopCount microplate reader (PerkinElmer).

[2] = test system: H3K9me2 in MDA-MB-231 cells; experiment: MDA-MB-231 H3K9me2 in-cell western assay (EHMT2 ICW); type: cell-based; conditions: Homo sapiens, Table 3A, read-out: ICW (IC50 μM)
Excerpt: MDA-MB-231 cell line was purchased from ATCC (Manassas, Va., USA). RPMI/Glutamax medium, Penicillin-Streptomycin, Heat Inactivated Fetal Bovine Serum, and D-PBS were purchased from Life Technologies (Grand Island, N.Y., USA). Odyssey blocking buffer, 800 CW goat anti-mouse IgG (H+L) antibody, and Licor Odyssey Infrared Scanner were purchased from Licor Biosciences, Lincoln, Nebr., USA. H3K9me2 mouse monoclonal antibody (Cat #1220) was purchased from Abcam (Cambridge, Mass., USA). 16% Paraformaldehyde was purchased from Electron Microscopy Sciences, Hatfield, Pa., USA). MDA-MB-231 cells were maintained in complete growth medium (RPMI supplemented with 10% v/v heat inactivated fetal bovine serum) and cultured at 37° C. under 5% C02. UNC0638 was purchased from Sigma-Aldrich (St. Louis, Mo., USA).
General Procedure for MDA-MB-231 HEK9me2 in-Cell Western Assay.
Compound (100 nL) was added directly to 384-well cell plate. MDA-MB-231 cells (ATCC) were seeded in assay medium (RPMI/Glutamax supplemented with 10% v/v heat inactivated fetal bovine serum and 1% Penicillin/Streptomycin, Life Technologies) at a concentration of 3,000 cells per well to a Poly-D-Lysine coated 384-well cell culture plate with 50 μL per well. Plates were incubated at 37° C., 5% CO2 for 48 hours (BD Biosciences 356697). […] After the incubation, 50 μL per well of 8% paraformaldehyde (Electron Microscopy Sciences) in PBS was added to the plates and incubated at room temperature for 20 minutes. Plates were transferred to a Biotek 406 plate washer and washed 2 times with 100 μL per well of wash buffer (1×PBS containing 0.3% Triton X-100 (v/v)). Next, 60 μL per well of Odyssey blocking buffer (Licor Biosciences) was added to each plate and incubated for 1 hour at room temperature. Blocking buffer was removed and 20 μL of monoclonal primary antibody α-H3K9me2 (Abcam) diluted 1:800 in Odyssey buffer with 0.1% Tween 20 (v/v) were added and plates were incubated overnight (16 hours) at 4° C. Plates were washed 5 times with 100 μL per well of wash buffer. Next 20 μL per well of secondary antibody was added (1:500 800 CW donkey anti-mouse IgG (H+L) antibody (Licor Biosciences), 1:1000 DRAQ5 (Cell Signaling Technology) in Odyssey buffer with 0.1% Tween 20 (v/v)) and incubated for 1 hour at room temperature. The plates were washed 5 times with 100 μL per well wash buffer then 2 times with 100 μL per well of water. Plates were allowed to dry at room temperature then imaged on a Licor Odyssey Infrared Scanner (Licor Biosciences) which measured integrated intensity at 700 nm and 800 nm wavelengths. Both 700 and 800 channels were scanned.
First, the ratio for each well was determined by:
Each plate included fourteen control wells of DMSO only treatment (Minimum Inhibition) as well as fourteen control wells (background wells) for maximum inhibition treated with control compound UNC0638 (Background wells).
The average of the ratio values for each well was calculated and used to determine the percent inhibition for each test well in the plate. Control compound was serially diluted three-fold in DMSO for a total of 10 test concentrations beginning at 1 μM. Percent inhibition was calculated as: […]
IC50 curves were generated using triplicate wells per concentration of compound. The IC50 is the concentration of compound at which measured methylation is inhibited by 50% as interpolated from the dose response curves. IC50 values were calculated using a non-linear regression (variable slope-four parameter fit model) with by the following formula:
where Top is fixed at 100% and Bottom is fixed to 0%, [I]=concentration of inhibitor, IC50=half maximal inhibitory concentration and n=Hill Slope.

Row | SMILES | IC50 [1] [µM] | IC50 [2] [µM]
1 | CNc1cc(C)nc(Nc2ccc(OC)c(-n3ncc4c3CCCNC4=O)c2F)n1 [Compound A63] | > 1 | 
2 | CNC1=Nc2cc(-c3cc4ccncc4[nH]3)c(Cl)cc2C12CCC2 [Compound A44] | 0.01 to 0.1 | 0.1 to 1
3 | CNCc1cn(-c2cc3c(cc2Cl)C2(CCC2)C(NC)=N3)cn1 [Compound A48] | > 1 | > 1
4 | CNc1cc(C)nc(Nc2ccc(OC)c(-n3ncc4c3CCCNC4)c2F)n1 [Compound A62] | < 0.01 | 0.01 to 0.1
5 | CNC1=Nc2cc(-n3cc4c(n3)CCCN(C)C4)c(Cl)cc2C12CCC2 [Compound A68] | < 0.01 | < 0.01
6 | CNC1=Nc2cc(-c3[nH]c4cnccc4c3C)c(Cl)cc2C12CCC2 [Compound A45] | < 0.01 | 0.01 to 0.1
7 | CNC1=Nc2cc(-n3cc([C@H]4CCCN4C)nn3)c(OC)cc2C12CCC2 [Compound A59R] | < 0.01 | 0.1 to 1
8 | CNCc1cn(-c2cc3c(cc2OC)C2(CCC2)C(NC)=N3)cn1 [Compound A47] | 0.01 to 0.1 | 0.1 to 1
9 | CNc1cc(C)nc(Nc2ccc(OC)c(-n3cc4c(n3)CCCN(C)C4)c2F)n1 [Compound A66] | < 0.01 | 
10 | CNC1=Nc2cc(-n3cc4c(n3)CCCNC4)c(OC)cc2C12CCC2 [Compound A70] | < 0.01 | < 0.01
11 | CNC1=Nc2cc(-n3cc4c(n3)CCCNC4)c(Cl)cc2C12CCC2 [Compound A51] | < 0.01 | < 0.01
12 | CNC1=Nc2cc(-n3cc([C@H]4CCCN4C)nn3)c(Cl)cc2C12CCC2 [Compound A52R] | 0.01 to 0.1 | 0.01 to 0.1
13 | CCN1CCCc2nn(-c3cc4c(cc3Cl)C3(CCC3)C(NC)=N4)cc2C1 [Compound A69] | < 0.01 | 0.01 to 0.1
